Assay results published in ChEMBL document CHEMBL1201862, “PubChem BioAssay data set” (2004).
The source made the active and inactive calls.

Columns and labels:
[1] = biological target: Cyclin-dependent kinase 5/CDK5 activator 1 (Homo sapiens, UniProt Q00535); assay: blockade of human CDK5 activity – biochemical, cherry-picked samples, set 2, dose response (AID 504545)
Protein S100-A4 = Protein S100-A4 (Homo sapiens, UniProt P26447); assay: human S100A4 peptide interaction inhibition curves – biochemical, fluorescence polarization, cherry-picked hits, dose response (AID 687001); assay type: functional
Chain of Protein S100-A4 (P26447 whole entry): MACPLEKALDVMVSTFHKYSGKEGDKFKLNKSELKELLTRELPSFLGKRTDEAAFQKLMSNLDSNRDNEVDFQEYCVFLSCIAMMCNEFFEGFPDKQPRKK

[2] = biological target: Eukaryotic translation initiation factor 4H (Homo sapiens, UniProt Q15056); assay: eIF4H binding inhibition – biochemical, uHTS, fluorescence polarization, translation initiation inhibitor project, primary screen (AID 2012)
[3] = biological target: T1, Polyadenylate-binding protein 1 (Homo sapiens, UniProt P11940); assay: blockers of PABP interaction with poly(A) – biochemical, fluorescence polarization, […] (AID 2014)
T1 sequence (P11940 whole entry): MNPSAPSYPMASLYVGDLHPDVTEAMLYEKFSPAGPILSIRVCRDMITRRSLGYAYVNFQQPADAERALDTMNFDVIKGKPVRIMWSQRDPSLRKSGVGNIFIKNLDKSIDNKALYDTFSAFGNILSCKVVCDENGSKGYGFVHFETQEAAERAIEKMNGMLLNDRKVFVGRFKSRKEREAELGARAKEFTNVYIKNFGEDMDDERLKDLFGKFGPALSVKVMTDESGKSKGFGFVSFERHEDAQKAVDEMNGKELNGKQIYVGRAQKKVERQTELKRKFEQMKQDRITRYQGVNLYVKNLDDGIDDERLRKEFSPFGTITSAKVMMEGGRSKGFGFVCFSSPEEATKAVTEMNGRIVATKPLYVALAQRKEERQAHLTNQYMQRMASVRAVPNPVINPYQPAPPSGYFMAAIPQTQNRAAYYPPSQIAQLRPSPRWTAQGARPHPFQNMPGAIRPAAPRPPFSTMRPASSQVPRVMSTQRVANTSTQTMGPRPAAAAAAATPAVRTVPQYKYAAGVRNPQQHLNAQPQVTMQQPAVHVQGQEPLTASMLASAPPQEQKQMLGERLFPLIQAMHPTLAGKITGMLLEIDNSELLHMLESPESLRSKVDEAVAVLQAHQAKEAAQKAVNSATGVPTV

HEK293 [4] = assay: TNF Induced NF-kB Luciferase in 293-NF-kB-Luc Stable Cells. [Related pubchem assays: 1266, 1299, 1269, 1373, 1292, 1290, 1302, 1371, 1283, 1270, 1295, 1271, 1375, 1294, 1374, 1281, 1293, 1291, 1289, 1280, 465, 1368, 1364, 1282, 1372, 1365, 1369, 1370, 1367, 1366 ]; assay type: functional, cell-based; details: Homo sapiens
[5] = biological target: Luciferin 4-monooxygenase (Photinus pyralis, UniProt P08659); assay: In vitro luciferase assay using purified luciferase. [Related pubchem assays: 1299, 1270, 1295, 1375, 1287, 1281, 1293, 1291, 1289, 1280, 465, 1364, 1282, 1372, 1365, 1370, 1367, 1366, 1266, 1373, 1292, 1290, 1302, 1371, 1283, 1271, 1294, 1374, 1368, 1369 ]
Chain of Luciferin 4-monooxygenase (P08659 whole entry): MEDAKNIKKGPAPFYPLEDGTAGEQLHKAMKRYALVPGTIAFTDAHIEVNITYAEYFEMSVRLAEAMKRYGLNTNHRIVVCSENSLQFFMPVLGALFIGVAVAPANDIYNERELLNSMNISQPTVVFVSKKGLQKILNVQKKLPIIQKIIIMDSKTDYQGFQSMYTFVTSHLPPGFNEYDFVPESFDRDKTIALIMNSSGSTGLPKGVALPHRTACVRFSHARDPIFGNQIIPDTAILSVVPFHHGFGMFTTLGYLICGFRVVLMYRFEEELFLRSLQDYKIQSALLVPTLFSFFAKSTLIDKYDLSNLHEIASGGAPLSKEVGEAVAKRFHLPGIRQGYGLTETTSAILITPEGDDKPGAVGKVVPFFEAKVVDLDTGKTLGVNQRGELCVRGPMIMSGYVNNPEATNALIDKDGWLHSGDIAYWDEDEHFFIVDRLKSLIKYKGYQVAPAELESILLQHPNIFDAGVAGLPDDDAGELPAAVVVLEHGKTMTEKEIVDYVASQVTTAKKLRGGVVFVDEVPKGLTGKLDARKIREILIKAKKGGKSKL

HEK293 [6] = assay: Cytotoxicity assay in HEK293 cells. [Related pubchem assays (depositor defined):AID1266, AID1269, AID1270, AID1271, AID1280, AID1281, AID1282, AID1283, AID1287, AID1289, AID1290, AID1291, AID1292, AID1293, AID1294, AID1295, AID1299, AID1302, AID1364, AID1365, AID1366, AID1367, AID1369, AID1370, AID1371, AID1372, AID1373, AID1374, AID1375, AID1384 …; assay type: functional, cell-based; details: Homo sapiens
HEK293 [7] = assay: PMA/Ionomycin-induced IL-8 production in HEK293- NF-kB-Luc stable cells. [Related pubchem assays: 1299, 1295, 1375, 1287, 1281, 1293, 1291, 1289, 1280, 465, 1364, 1282, 1372, 1365, 1367, 1366, 1266, 1269, 1373, 1292, 1290, 1302, 1371, 1283, 1271, 1294, 1374, 1368, 1369 ]; assay type: functional, cell-based; details: Homo sapiens
HEK293 [8] = assay: SAR Analysis of small molecule inhibitors of T-cell specific antigen receptor-induced NF-kB activation in a HEK-293T cell line using a luminescence assay - Set 2. [Related pubchem assays (depositor defined):AID435003, AID435012, AID489026]; assay type: functional, cell-based; details: Homo sapiens
Jurkat = assay: SAR Analysis of small molecule inhibitors of T-cell specific antigen receptor-induced NF-kB activation in a Jurkat cell line using a luminescence assay - Set 2. [Related pubchem assays (depositor defined):AID435003, AID435012, AID465]; assay type: functional, cell-based; details: Homo sapiens
HEK293 [9] = assay: HEK293T cell viability loss, resazurin readout – resazurin fluorescence, cytotoxicity control for NF-kB activator project, SAR follow-up (AID 493251); assay type: functional, cell-based; details: Homo sapiens
HEK293 [10] = assay: PMA/Ionomycin induced NF-kB luciferase assay in 293- NF-kB-Luc stable cells. [Related pubchem assays: 1299, 1270, 1295, 1375, 1287, 1281, 1293, 1291, 1289, 1280, 465, 1364, 1282, 1372, 1365, 1370, 1367, 1366, 1269, 1373, 1292, 1290, 1302, 1371, 1283, 1271, 1294, 1374, 1368, 1369 ]; assay type: functional, cell-based; details: Homo sapiens
[11] = biological target: T1, Polyadenylate-binding protein 1; assay: MLLE binding blockers, Cy5 peptide tracer – biochemical, fluorescence polarization, Cy5-PAM2 peptide, secondary, miRNA deadenylation inhibitor project, dose response (AID 602260); assay type: functional; details: read-out: IC50_Mean
[12] = biological target: T2, Microphthalmia-associated transcription factor (Homo sapiens, UniProt O75030); assay: reducers of TRPM1 reporter luminescence, concentration series – cell-based, SK-MEL-5, cherry-picked, set 3, MITF inhibitor project, dose response (AID 493073); assay type: functional;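 note: SK-MEL-5 melanoma cells with luciferase driven by the MITF target TRPM1 promoter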
T2 sequence (O75030 whole entry): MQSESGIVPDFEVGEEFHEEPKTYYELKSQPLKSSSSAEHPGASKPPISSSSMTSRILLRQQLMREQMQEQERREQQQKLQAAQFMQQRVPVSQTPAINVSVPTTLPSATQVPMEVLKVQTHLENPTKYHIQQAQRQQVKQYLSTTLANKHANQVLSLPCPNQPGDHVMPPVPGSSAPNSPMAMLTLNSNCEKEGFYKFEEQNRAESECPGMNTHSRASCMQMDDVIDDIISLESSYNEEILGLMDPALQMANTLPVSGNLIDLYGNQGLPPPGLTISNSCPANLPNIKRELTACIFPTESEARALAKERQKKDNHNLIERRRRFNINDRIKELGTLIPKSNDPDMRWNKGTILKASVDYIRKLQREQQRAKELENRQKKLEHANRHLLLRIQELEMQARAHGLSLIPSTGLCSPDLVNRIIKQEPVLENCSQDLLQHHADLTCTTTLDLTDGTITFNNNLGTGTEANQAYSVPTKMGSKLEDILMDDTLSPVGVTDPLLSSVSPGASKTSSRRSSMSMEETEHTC

Vero = assay: viability of Vero cells under compound – cytotoxicity control for flavivirus capping enzyme inhibitors (AID 588742); assay type: functional; details: Chlorocebus sabaeus
[13] = mitochondrial function rescue without frataxin homolog – Friedreich's ataxia, plus single-dose screen, dose response (AID 1465); assay type: functional;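 note: yeast depleted of Yfh1p frataxin homolog grown on glycerol needing respiration; WST-1 tetrazolium dye reduction as measure of cellular dehydrogenase metabolic activity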
[14] = biological target: T1, Polyadenylate-binding protein 1; assay: MLLE domain peptide-binding blockers, IC50 – biochemical, fluorescence polarization, FITC-PAM2 peptide, dose response (AID 602259); assay type: functional; details: read-out: IC50_Mean
[15] = biological target: T3, Replicative DNA helicase DnaB (Mycobacterium tuberculosis, UniProt P9WMR3); assay: DnaB intein splicing inhibitors, dose response, biochemical, cell-free fluorescence (AID 449749); assay type: functional
T3 sequence (P9WMR3 whole entry): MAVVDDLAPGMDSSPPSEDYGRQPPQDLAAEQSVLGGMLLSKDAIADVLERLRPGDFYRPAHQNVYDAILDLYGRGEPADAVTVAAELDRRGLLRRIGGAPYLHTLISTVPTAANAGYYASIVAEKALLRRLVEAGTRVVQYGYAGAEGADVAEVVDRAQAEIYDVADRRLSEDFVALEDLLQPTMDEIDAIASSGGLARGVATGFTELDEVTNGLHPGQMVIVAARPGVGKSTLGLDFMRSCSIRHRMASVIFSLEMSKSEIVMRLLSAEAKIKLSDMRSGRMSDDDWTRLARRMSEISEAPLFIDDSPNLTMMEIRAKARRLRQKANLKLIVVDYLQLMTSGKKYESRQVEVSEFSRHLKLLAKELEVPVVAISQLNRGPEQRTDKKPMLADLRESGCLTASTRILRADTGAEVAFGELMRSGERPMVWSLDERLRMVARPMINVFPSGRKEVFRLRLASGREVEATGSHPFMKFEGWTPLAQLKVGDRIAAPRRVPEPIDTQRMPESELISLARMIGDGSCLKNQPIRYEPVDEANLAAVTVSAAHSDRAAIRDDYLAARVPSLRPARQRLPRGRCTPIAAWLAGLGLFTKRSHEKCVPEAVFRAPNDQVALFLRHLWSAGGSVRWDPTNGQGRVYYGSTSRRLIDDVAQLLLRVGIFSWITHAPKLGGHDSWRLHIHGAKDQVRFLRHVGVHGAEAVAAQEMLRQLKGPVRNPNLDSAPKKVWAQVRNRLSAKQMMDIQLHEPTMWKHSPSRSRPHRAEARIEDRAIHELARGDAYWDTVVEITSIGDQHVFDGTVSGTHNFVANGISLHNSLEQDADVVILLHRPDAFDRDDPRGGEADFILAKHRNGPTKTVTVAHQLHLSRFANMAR

[16] = biological target: FAD-linked sulfhydryl oxidase ALR (Homo sapiens, UniProt P55789); assay: ALR-catalysed DTT oxidation blockers – biochemical, H2O2 detection, luminescence, cherry-pick, dose response (AID 493248)
Chain of FAD-linked sulfhydryl oxidase ALR (P55789 whole entry): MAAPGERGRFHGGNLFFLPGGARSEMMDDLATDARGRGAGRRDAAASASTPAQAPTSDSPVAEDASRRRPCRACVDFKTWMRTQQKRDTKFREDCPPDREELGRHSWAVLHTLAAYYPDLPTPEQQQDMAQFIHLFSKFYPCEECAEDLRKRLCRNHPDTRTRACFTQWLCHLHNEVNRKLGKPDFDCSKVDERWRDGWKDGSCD

Protein RecA = biological target: T4, Protein RecA (Mycobacterium tuberculosis, UniProt P9WHJ3); assay: Fluorescence Cell-Free Homogeneous Dose Retest to Identify Inhibitors of RecA-Intein Splicing Activity. [Related pubchem assays (depositor defined):AID2097, AID2223, AID489010, AID492950]; assay type: functional
T4 sequence (P9WHJ3 whole entry): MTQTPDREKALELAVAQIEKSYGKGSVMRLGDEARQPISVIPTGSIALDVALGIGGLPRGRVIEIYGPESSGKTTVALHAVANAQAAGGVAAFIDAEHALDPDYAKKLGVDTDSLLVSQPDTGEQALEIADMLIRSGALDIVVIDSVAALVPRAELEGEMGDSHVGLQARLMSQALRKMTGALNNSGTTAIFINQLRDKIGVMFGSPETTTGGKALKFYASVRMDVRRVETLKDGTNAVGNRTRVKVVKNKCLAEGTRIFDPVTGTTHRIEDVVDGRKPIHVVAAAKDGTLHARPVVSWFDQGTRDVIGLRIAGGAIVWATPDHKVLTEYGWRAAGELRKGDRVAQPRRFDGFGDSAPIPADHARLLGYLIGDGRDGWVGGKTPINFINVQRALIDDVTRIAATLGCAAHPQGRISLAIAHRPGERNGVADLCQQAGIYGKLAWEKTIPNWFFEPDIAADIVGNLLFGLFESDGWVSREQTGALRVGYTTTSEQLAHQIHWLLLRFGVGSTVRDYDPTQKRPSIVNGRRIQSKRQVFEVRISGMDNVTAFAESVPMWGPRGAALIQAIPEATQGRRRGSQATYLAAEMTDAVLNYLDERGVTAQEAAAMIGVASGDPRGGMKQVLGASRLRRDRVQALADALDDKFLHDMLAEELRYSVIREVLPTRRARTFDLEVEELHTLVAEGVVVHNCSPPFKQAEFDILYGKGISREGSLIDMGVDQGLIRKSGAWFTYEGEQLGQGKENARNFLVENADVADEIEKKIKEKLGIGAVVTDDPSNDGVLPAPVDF

Hexokinase HKDC1 = Hexokinase HKDC1 (Homo sapiens, UniProt Q2TB90); assay: inhibition of HKDC1 glucose phosphorylation – biochemical, W721R variant, dose response (AID 504729); assay type: functional
Chain of Hexokinase HKDC1 (Q2TB90 whole entry): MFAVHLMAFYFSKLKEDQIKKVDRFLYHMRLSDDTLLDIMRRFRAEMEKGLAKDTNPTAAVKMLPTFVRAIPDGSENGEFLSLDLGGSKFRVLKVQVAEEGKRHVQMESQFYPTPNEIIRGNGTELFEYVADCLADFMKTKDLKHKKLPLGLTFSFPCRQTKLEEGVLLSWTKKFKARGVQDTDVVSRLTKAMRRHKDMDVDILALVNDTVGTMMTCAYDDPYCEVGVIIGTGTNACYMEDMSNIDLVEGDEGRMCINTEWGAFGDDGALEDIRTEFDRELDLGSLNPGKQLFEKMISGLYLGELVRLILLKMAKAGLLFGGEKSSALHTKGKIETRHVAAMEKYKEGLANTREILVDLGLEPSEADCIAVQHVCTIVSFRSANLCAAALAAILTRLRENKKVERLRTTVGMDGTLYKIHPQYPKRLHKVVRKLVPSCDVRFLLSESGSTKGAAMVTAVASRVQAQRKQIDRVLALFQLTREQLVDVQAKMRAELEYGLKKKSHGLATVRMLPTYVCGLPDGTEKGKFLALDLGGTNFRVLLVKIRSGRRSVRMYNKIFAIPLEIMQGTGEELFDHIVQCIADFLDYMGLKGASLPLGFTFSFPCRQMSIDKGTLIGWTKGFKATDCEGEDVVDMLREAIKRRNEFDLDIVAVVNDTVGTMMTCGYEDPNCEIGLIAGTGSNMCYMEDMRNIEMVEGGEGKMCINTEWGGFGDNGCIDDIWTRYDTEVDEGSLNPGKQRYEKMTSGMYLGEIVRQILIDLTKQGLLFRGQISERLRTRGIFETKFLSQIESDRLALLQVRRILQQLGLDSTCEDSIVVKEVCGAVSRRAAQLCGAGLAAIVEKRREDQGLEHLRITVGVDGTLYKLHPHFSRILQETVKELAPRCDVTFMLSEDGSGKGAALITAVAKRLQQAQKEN

INS1 = assay: INS-1E survival protection against cytokine death – cell-based, luminescence, retest, dose response (AID 449756); assay type: functional; details: Rattus norvegicus;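 note: cell death triggered by IL-1 beta plus TNF-alpha plus IFN-gamma mixture; protective hits raise ATP signal compared with cytokine alone wells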
A-375 = assay: proliferation inhibition in MITF-low A375 cells – cell-based, cherry-pick samples, set 2, counter-screen for MITF modulator project, dose response (AID 540335); assay type: functional; details: Homo sapiens
[17] = biological target: T5, Intestinal-type alkaline phosphatase (Homo sapiens, UniProt P09923); assay: human intestinal alkaline phosphatase activators, dose response, biochemical, luminescence, uHTS hits (AID 463120); assay type: functional
T5 sequence (P09923 whole entry): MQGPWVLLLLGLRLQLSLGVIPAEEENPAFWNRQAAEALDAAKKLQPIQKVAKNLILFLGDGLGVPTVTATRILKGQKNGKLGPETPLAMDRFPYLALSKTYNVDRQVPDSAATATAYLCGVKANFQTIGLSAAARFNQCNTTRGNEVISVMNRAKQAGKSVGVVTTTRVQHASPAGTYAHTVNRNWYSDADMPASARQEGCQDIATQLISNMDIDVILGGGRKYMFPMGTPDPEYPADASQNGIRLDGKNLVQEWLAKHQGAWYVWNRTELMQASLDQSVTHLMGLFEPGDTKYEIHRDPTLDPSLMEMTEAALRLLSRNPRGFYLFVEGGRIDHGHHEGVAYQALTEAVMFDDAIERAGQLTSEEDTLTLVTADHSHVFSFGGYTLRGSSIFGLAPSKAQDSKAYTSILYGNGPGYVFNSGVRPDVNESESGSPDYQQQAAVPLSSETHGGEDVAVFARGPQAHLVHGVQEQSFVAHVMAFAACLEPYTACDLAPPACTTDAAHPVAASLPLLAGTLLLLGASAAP

[18] = biological target: T5, Intestinal-type alkaline phosphatase; assay: Dose Response confirmation of uHTS hits from a small molecule inhibitors of human intestinal alkaline phosphatase via a luminescent assay. [Related pubchem assays (depositor defined):AID2544, AID2574]; assay type: functional
Wee1-like protein kinase = Wee1-like protein kinase (Homo sapiens, UniProt P30291); assay: HeLa cell cycle G2/M accumulation – FACS, mechanism study for Wee1 degradation inhibitor project, late-stage follow-up, panel member Wee1 Degradation (AID 2088)
Chain of Wee1-like protein kinase (P30291 whole entry): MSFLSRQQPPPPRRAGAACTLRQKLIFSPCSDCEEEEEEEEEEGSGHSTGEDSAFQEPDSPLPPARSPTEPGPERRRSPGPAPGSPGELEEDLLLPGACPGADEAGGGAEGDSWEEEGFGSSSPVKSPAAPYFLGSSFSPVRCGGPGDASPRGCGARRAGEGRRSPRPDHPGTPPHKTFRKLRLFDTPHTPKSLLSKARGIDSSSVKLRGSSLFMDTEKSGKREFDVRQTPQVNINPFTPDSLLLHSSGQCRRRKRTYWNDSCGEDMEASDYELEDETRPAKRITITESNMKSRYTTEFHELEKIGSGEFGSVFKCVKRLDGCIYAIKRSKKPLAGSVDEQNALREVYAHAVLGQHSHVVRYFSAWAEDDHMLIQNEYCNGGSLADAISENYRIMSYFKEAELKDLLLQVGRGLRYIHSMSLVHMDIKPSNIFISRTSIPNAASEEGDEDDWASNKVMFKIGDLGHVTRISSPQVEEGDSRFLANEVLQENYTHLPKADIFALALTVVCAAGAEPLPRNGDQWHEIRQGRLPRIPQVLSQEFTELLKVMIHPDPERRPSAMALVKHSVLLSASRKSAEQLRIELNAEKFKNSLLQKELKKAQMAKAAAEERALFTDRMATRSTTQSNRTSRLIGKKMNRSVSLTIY

[19] = biological target: G2/mitotic-specific cyclin-B1 (Homo sapiens, UniProt P14635); assay: HeLa cell cycle G2/M accumulation – FACS, mechanism study for Wee1 degradation inhibitor project, late-stage follow-up, panel member Cyclin B Degradation (AID 2088)
Chain of G2/mitotic-specific cyclin-B1 (P14635 whole entry): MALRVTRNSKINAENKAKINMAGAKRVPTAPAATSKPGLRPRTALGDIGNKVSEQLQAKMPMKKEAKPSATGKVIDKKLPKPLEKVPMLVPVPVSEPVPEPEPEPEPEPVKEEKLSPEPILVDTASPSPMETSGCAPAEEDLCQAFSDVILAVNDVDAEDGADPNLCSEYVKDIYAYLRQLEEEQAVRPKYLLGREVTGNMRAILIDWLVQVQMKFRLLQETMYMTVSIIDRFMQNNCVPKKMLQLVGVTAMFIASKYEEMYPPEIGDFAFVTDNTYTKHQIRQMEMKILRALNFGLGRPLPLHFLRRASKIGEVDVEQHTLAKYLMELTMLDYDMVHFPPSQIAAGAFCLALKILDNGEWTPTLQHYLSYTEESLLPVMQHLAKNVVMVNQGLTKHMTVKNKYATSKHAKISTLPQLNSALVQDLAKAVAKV

[20] = biological target: Voltage-gated N-type calcium channel alpha-1B subunit/Amyloid beta A4 precursor protein-binding family A member 1 (Homo sapiens, UniProt Q00975+Q02410); assay: disruptors of Mint-PDZ/N-type channel peptide interaction – biochemical, HTRF, set 2, SAR follow-up (AID 434980); assay type: functional

Chain of Cyclin-dependent kinase 5/CDK5 activator 1 (Q00535 whole entry): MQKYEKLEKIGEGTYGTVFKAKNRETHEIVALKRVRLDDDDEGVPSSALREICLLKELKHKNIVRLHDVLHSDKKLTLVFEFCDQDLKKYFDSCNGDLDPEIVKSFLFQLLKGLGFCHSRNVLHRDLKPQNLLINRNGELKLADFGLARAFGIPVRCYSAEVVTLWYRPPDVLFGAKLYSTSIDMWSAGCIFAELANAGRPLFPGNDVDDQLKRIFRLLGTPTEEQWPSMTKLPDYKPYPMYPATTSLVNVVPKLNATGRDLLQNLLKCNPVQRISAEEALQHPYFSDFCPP
Chain of Cyclin-dependent kinase 5/CDK5 activator 1 (Q15078 whole entry, further chain): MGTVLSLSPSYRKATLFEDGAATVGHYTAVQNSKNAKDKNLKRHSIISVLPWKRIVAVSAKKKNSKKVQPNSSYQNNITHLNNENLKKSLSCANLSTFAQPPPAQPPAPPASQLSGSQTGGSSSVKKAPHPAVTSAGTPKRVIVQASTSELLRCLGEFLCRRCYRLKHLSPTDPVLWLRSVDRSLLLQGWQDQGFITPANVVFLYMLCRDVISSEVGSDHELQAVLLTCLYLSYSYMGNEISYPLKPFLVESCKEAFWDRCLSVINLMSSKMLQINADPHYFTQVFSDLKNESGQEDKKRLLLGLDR

COc1ccc(C(=O)c2sc(NC(C)C)nc2N)cc1OC
AC50 [1]: 90.5 µM (active)

Cc1cc2cc(CNC(=O)Nc3ccc(Cl)c(Cl)c3)ccc2n1C
AC50 (Protein S100-A4): 1.74 µM (active) | IC50 [2]: 5.7 µM (active) | IC50 [3]: 4.53 µM (active)

CCOc1ccc(NC(=O)c2ccc([N+](=O)[O-])o2)cc1
EC50 (HEK293 [4]): > 8 µM (not active) | EC50 [5]: > 8 µM (not active) | EC50 (HEK293 [6]): > 8 µM (inactive) | EC50 (HEK293 [7]): > 8 µM (not active) | IC50 (HEK293 [8]): 39.9 µM (inactive) | IC50 (Jurkat): 38.9 µM (inactive) | IC50 (HEK293 [9]): 50.6 µM (inactive) | EC50 (HEK293 [10]): 2.77 µM (active)

COc1ccc(S(=O)(=O)Nc2ccc(O)c3ccccc23)cc1
IC50 [11]: > 66 µM (inactive) | AC50 [12]: 9.07 µM (active) | CC50 (Vero): > 40 µM (active) | EC50 [13]: > 100 µM (active) | IC50 [14]: > 66 µM (inactive) | AC50 [15]: 0.0824 µM (active) | AC50 [16]: 18.4 µM (active) | EC50 (Protein RecA): 0.0478 µM (active) | IC50 (Hexokinase HKDC1): 21 µM (inactive) | AC50 (INS1): 4.67 µM (active) | AC50 (A-375): 33.1 µM (active)

O=C(Nc1cccc(-c2cccc(F)c2)c1)C1CCN(C2CCC2)CC1
EC50 [17]: > 100 µM (inactive) | IC50 [18]: > 100 µM (inactive)

Cc1ccc(Nc2cc(C)nn2-c2nc(C)cc(O)n2)cc1
EC50 (Wee1-like protein kinase): > 55.7 µM (inactive) | EC50 [19]: > 55.7 µM (inactive)

O=C(NCCN1CCCCC1)c1cc(-c2ccco2)nc2ccccc12
IC50 [20]: > 56.8 µM (inactive)
